Here are results for 23 compounds from US20240262815A1, “HETEROARYL DERIVATIVE, METHOD FOR PREPARING SAME, AND PHARMACEUTICAL COMPOSITION COMPRISING SAME AS ACTIVE INGREDIENT” (VORONOI INC., priority 2021, published 2024).

In this experiment the test system is SK-BR-3 cancer cells. As to the kind of experiment: Inhibitory activity against proliferation of SK-BR-3 cancer cells (CellTiter-Glo). The format is cell-based. Conditions: Homo sapiens, SK-BR-3, 120 h, ErbB2-overexpressing SK-BR-3 cells, 120 hours after treatment. Put shortly: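 GI50 derived from % growth relative to control, measured by CellTiter-Glo luminescence after 120 h compound exposure (12 concentrations, 0.2 nM-5 μM final, n=3). BT-474 grown in RPMI-1640/20% FBS, SK-BR-3 in McCOY'S 5A/10% FBS; seeding 48 h pre-treatment.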

Turning to `C=CC(=O)Nc1cc(Nc2cc(N3OCC[C@@H]3c3cccc(-c4cc(F)cc(F)c4)c3)ncn2)c(OC)cc1N1CCC(N2CCN(C3CC3)CC2)CC1` [Example 269, (R)-N-(2-(4-(4-cyclopropylpiper-azin-1-yl)piper-idin-1-yl)-5-((6-(3-(3′,5′-difluoro-[1,1′-biphenyl]-3-yl)isoxazolidin-2-yl)pyrimidin-4-yl)-amino)-4-methoxy-phenyl)acrylamide], the GI50 was below 50 nM. For `C=CC(=O)Nc1cc(Nc2cc(N3OCC[C@@H]3c3cccc(-c4cc(F)cc(F)c4)c3)ncn2)c(OC)cc1N1CCO[C@H](C)C1` [Example 270, N-(5-((6-((R)-3-(3′,5′-difluoro-[1,1′-biphenyl]-3-yl)-isoxazolidin-2-yl)-pyrimidin-4-yl)-amino)-4-methoxy-2-((R)-2-methyl-morpholino)phen-yl)acrylamide] the value was below 50 nM; for `C=CCN1CCN(c2cc(OC)c(Nc3cc(N4OCC[C@@H]4c4cccc(-c5cc(F)cc(F)c5)c4)ncn3)cc2NC(=O)C=C)CC1` [Example 271, (R)-N-(2-(4-allyl-piperazin-1-yl)-5-((6-(3-(3′,5′-difluoro-[1,1′-biphen-yl]-3-yl)-isoxazolidin-2-yl)-pyrimidin-4-yl)-amino)-4-methoxy-phenyl)acrylamide], below 50 nM. For `C=CC(=O)Nc1cc(Nc2cc(N3OCC[C@@H]3c3cccc(-c4cc(F)cc(F)c4)c3)ncn2)c(OC)cc1N1CCC(N2CCOCC2)CC1` [Example 272, (R)-N-(5-((6-(3-(3′,5′-difluoro-[1,1′-biphenyl]-3-yl)-isoxazolidin-2-yl)-pyrimidin-4-yl)-amino)-4-methoxy-2-(4-morpholino-piperidin-1-yl)-phenyl)acrylamide] the value was below 50 nM. To `C=CC(=O)Nc1cc(Nc2cc(N3OCC[C@@H]3c3cccc(-c4cc(F)cc(F)c4)c3)ncn2)c(OC)cc1N(C)CCN(C)C` [Example 277, (R)-N-(5-((6-(3-(3′,5′-difluoro-[1,1′-biphenyl]-3-yl)-isoxazolidin-2-yl)-pyrimidin-4-yl)-amino)-2-((2-(dimethylamino)-ethyl)(methyl)-amino)-4-methoxy-phenyl)acrylamide] belongs below 50 nM. For the compound `C=CC(=O)Nc1cc(Nc2cc(N3OCC[C@@H]3c3cccc(-c4cccc(F)c4)c3)ncn2)c(OC)cc1N1CCNC2(CC2)C1` [Example 291, (R)-N-(5-((6-(3-(3′-fluoro-[1,1′-biphenyl]-3-yl)-isoxazolidin-2-yl)-pyrimidin-4-yl)-amino)-4-methoxy-2-(4,7-diazaspiro-[2.5]octan-7-yl)-phenyl)acrylamide], the GI50 was below 50 nM. Consider `C=CC(=O)Nc1cc(Nc2cc(N3OCC[C@@H]3c3cccc(C#Cc4ccccc4)c3)ncn2)c(OC)cc1N1CCN(C)CC1` [Example 296, (R)-N-(4-methoxy-2-(4-methylpiper-azin-1-yl)-5-((6-(3-(3-(phenyleth-ynyl)phenyl)isox-azolidin-2-yl)pyr-imidin-4-yl)amino)-phenyl)acrylamide], for which the GI50 was in the range of 50 to 500 nM. To `C=CC(=O)Nc1cc(Nc2cc(N3OCC[C@@H]3c3cccc(-c4ccc(O)nc4)c3)ncn2)c(OC)cc1N1CCN(C)CC1` [Example 299, (R)-N-(5-((6-(3-(3-(6-hydroxypyridin-3-yl)phenyl)isox-azolidin-2-yl)pyr-imidin-4-yl)amino)-4-methoxy-2-(4-methylpiperazin-1-yl)phenyl)acryl-amide] belongs 500 to 5000 nM. Turning to `C=CC(=O)Nc1cc(Nc2cc(N3OCC[C@@H]3c3cccc(C#CC(C)(C)C)c3)ncn2)c(OC)cc1N1CCN(C)CC1` [Example 311, (R)-N-(5-((6-(3-(3-(3,3-dimethyl-but-1-yn-1-yl)phen-yl)isoxazolidin-2-yl)pyrimidin-4-yl)-amino)-4-methoxy-2-(4-methylpiper-azin-1-yl)phenyl)-acrylamide], the GI50 lay within 50 to 500 nM. To `C=CC(=O)Nc1cc(Nc2cc(N3OCC[C@@H]3c3cccc(C#Cc4cccc(O)c4)c3)ncn2)c(OC)cc1N(C)CCN(C)C` [Example 312, (R)-N-(2-((2-(dimethylamino)-ethyl)(methyl)-amino)-5-((6-(3-(3-((3-hydroxy-phenyl)ethynyl)-phenyl)isoxazol-idin-2-yl)pyrim-idin-4-yl)amino)-4-methoxyphen-yl)acrylamide] belongs 50 to 500 nM; to `C=CC(=O)Nc1cc(Nc2cc(N3OCC[C@@H]3c3cccc(C#Cc4cccc(F)c4)c3)ncn2)c(OC)cc1N(C)CCN(C)C` [Example 313, (R)-N-(2-((2-(dimethylamino)-ethyl)(methyl)-amino)-5-((6-(3-(3-((3-fluorophen-yl)ethynyl)phenyl)-isoxazolidin-2-yl)pyrimidin-4-yl)-amino)-4-methoxy-phenyl)acrylamide], below 50 nM; to `C=CC(=O)Nc1cc(Nc2cc(N3OCC[C@@H]3c3cccc(-c4cccc(F)c4)c3)ncn2)c(OC)cc1N1CC2CCC(C1)N2C1CC1` [Example 316, N-(2-((1R,5S)-8-cyclopropyl-3,8-diazabicyclo-[3.2.1]octan-3-yl)-5-((6-((R)-3-(3′-fluoro-[1,1′-biphen-yl]-3-yl)isoxazol-idin-2-yl)pyrim-idin-4-yl)amino)-4-methoxyphenyl)-acrylamide], 50 to 500 nM. With `C=CC(=O)Nc1cc(Nc2cc(N3OCC[C@@H]3c3cccc(-c4cccc(F)c4)c3)ncn2)c(OC)cc1N1CC2CN(C)CC2C1` (stereo partly drawn) [Example 319, N-(5-((6-((R)-3-(3′-fluoro-[1,1′-biphenyl]-3-yl)-isoxazolidin-2-yl)-pyrimidin-4-yl)-amino)-4-methoxy-2-(5-methylhexa-hydropyrrolo[3,4-c]pyrrol-2(1H)-yl)-phenyl)acrylamide], the GI50 is below 50 nM. To `C=CC(=O)Nc1cc(Nc2cc(N3OCC[C@@H]3c3cccc(-c4cccc(F)c4)c3)ncn2)c(OC)cc1N1CC2(CNC2)C1` [Example 321, (R)-N-(5-((6-(3-(3′-fluoro-[1,1′-biphenyl]-3-yl)-isoxazolidin-2-yl)-pyrimidin-4-yl)-amino)-4-meth-oxy-2-(2,6-diaza-spiro[3.3]heptan-2-yl)phenyl)acryl-amide] belongs 50 to 500 nM; to `C=CC(=O)Nc1cc(Nc2cc(N3OCC[C@@H]3c3cccc(OCc4cccc(F)c4)c3)ncn2)c(OC)cc1N1CCN(C)CC1` [Example compound 83, (R)-N-(5-((6-(3-(3-((3-fluorobenzyl)oxy)phenyl)isoxazolidin-2-yl)pyrimidin-4-yl)amino)-4-methoxy-2-(4-methylpiperazin-1-yl)phenyl)acrylamide], 50 to 500 nM; to `C=CC(=O)Nc1cc(Nc2cc(N3OCC[C@@H]3c3cccc(Oc4cccc(C(F)(F)F)c4)c3)ncn2)c(OC)cc1N1CCN(C)CC1` [Example compound 93, (R)-N-(4-methoxy-2-(4-methylpiperazin-1-yl)-5-((6-(3-(3-(3-(trifluoromethyl)phenoxy)phenyl)isoxazolidin-2-yl)pyrimidin-4-yl)amino)phenyl)acrylamide], below 50 nM. Regarding `C=CC(=O)Nc1cc(Nc2cc(N3OCC[C@@H]3c3cccc(Oc4cccc(C(F)(F)F)c4)c3)ncn2)c(OC)cc1N1CCC(N2CCN(C3CC3)CC2)CC1` [Example compound 94, (R)-N-(2-(4-(4-cyclopropylpiperazin-1-yl)piperidin-1-yl)-4-methoxy-5-((6-(3-(3-(3-(trifluoromethyl)phenoxy)phenyl)isoxazolidin-2-yl)pyrimidin-4-yl)amino)phenyl)acrylamide], the 50% growth inhibitory concentration (GI50) was below 50 nM. To `C=CC(=O)Nc1cc(Nc2cc(N3OCCC3c3cccc(OCc4ccccn4)c3)ncn2)c(OC)cc1N1CC[C@@H](N(C)C)C1` (some centres unmarked) [Example compound 97] belongs below 50 nM; to `C=CC(=O)Nc1cc(Nc2cc(N3OCC[C@@H]3c3cccc(OCc4cccc(C)n4)c3)ncn2)c(OC)cc1N1CCN(C)CC1` [Example compound 99, (R)-N-(4-methoxy-2-(4-methylpiperazin-1-yl)-5-((6-(3-(3-((6-methylpyridin-2-yl)methoxy)phenyl)isoxazolidin-2-yl)pyrimidin-4-yl)amino)phenyl)acrylamide], 50 to 500 nM; to `C=CC(=O)Nc1cc(Nc2cc(N3OCC[C@@H]3c3cccc(OCc4cccc(C)n4)c3)ncn2)c(OC)cc1N1CCC(N2CCN(C3CC3)CC2)CC1` [Example compound 100, (R)-N-(2-(4-(4-cyclopropylpiperazin-1-yl)piperidin-1-yl)-4-methoxy-5-((6-(3-(3-((6-methylpyridin-2-yl)methoxy)phenyl)isoxazolidin-2-yl)pyrimidin-4-yl)amino)phenyl)acrylamide], 50 to 500 nM. For `C=CC(=O)Nc1cc(Nc2cc(N3OCC[C@@H]3c3cccc(Oc4cc(F)ccc4F)c3)ncn2)c(OC)cc1N1CCN(C)CC1` [Example compound 103, (R)-N-(5-((6-(3-(3-(2,5-difluorophenoxy)phenyl)isoxazolidin-2-yl)pyrimidin-4-yl)amino)-4-methoxy-2-(4-methylpiperazin-1-yl)phenyl)acrylamide] the value was 50 to 500 nM; for `C=CC(=O)Nc1cc(Nc2cc(N3OCCC3c3ccc(Cl)c(OCc4cccc(F)c4)c3)ncn2)c(OC)cc1N1CCN(C)CC1` (centres unmarked) [Example compound 115, N-(5-((6-(3-(4-chloro-3-((3-fluorobenzyl)oxy)phenyl)isoxazolidin-2-yl)pyrimidin-4-yl)amino)-4-methoxy-2-(4-methylpiperazin-1-yl)phenyl)acrylamide], 50 to 500 nM; for `C=CC(=O)Nc1cc(Nc2cc(N3OCCC3c3cccc(-c4ccoc4)c3)ncn2)c(OC)cc1N1CCC(N2CCN(C3CC3)CC2)CC1` (centres unmarked) [Example compound 123, N-(2-(4-(4-cyclopropylpiperazin-1-yl)piperidin-1-yl)-5-((6-(3-(3-(furan-3-yl)phenyl)isoxazolidin-2-yl)pyrimidin-4-yl)amino)-4-methoxyphenyl)acrylamide], below 50 nM.

For orientation: GI50 means the concentration at which growth is held to half of that of the control.
